# Measured values taken from patent publication US6368793B1, “Metabolic selection methods” (MicroGenomics, Inc., priority 1998, dated 2002).
# Key:
# Assay type in all cases: cell-based
# [1] = test system: K. oxytoca strain MGK003 cosmid clones; assay: Growth of selected cosmid library clones of MGK003 on 2-KLG with or without IPTG; conditions: within 20 h at 37° C.
# Protocol: Prior to transfection of K. oxytoca strain MGK003 with the packaging mixture, the tester strain was transformed with plasmid pCB382 expressing the E. coli lamB gene that functions as λ receptor, which appears to be absent or non-functional in most Klebsiella strains (De Vries, G. E., et al., 1984. Proc. Natl. Acad. Sci. USA 81:6080-6084). The resulting MGK003 [λ^s] strain was transfected with the packaged products as follows:
# 6. The remainder was centrifuged at 3000 g for 5 min and was resuspended in 1 mL of M9 minimal medium supplemented with 10 μM IPTG (IPTG concentration can be varied up to 100 μM), and aliquots (200 μL) were plated on M9 plates containing 0.5% 2-KLG and 50 μM IPTG. 7.
# Plates were incubated at 37° C. for 36 h for selecting candidate pathways that would convert 2-KLG to AsA. (Alternatively, selection can be done at 30° C.)
# Among 500,000 clones to which a first selection round was applied, approximately 100 colonies of various sizes appeared on 2-KLG/IPTG plates. These were re-streaked on: (i) LB-kanamycin to verify the presence of the cosmid vector; (ii) 2-KLG/IPTG; and (iii) 2-KLG lacking IPTG to determine if growth of the positive clones on 2-KLG was dependent upon the expression of AsA catabolism. […]
# Klebsielia oxytoca = assay: Compound utilization of environmental isolates (growth on minimal medium); conditions: Kelbsiella oxytoca isolate
# Protocol: Samples from diverse natural environments were collected to use for the isolation of microbes that can utilize ascorbic acid (AsA) as the sole carbon source. No bacterial species has previously been reported to grow on AsA minimal medium.
# Environmental samples were collected from freshwater lakes, lemon and orange orchards, residential backyard soils, human and animal solid wastes.
# Over 100 microbial isolates, capable of forming visible colonies within 20 hours of incubation at 30° C. on M9 minimal medium containing 0.5% AsA, were selected from these samples. These 100 isolates were then screened for their ability to grow on 2-Keto-L-Gulonate (2-KLG) minimal medium.
# Thus, Kelbsiella oxytoca was retained as a candidate for genetic engineering of a host strain that can use AsA under controlled conditions for the selection of cloned microbial pathways from 2-KLG to AsA.
# K. oxytoca strain MGK003 = assay: Growth of tester strain MGK003 on AsA minimal medium with or without IPTG
# Excerpt: To engineer K. oxytoca as a host strain for the selection of biocatalysts which produce AsA, the promoter of the yiaK-S operon was replaced with a DNA fragment that contained the trp-lac hybrid promoter of transcription, the lacO operator, and the lacI^q repressor gene (Brosius, J. 1992. Meth. Enzymol. 216:469-483). This allows the yiaK-S operon, and therefore AsA catabolism, to be turned ON and OFF in a tightly controlled manner in the presence or absence of IPTG, a non-metabolizable inducer of the lac promoter. Practically, a 5-way ligation was set up among: (i) the pMAK705 integration vector which carries a chloramphenicol resistance marker and the thermosensitive origin of replication from plasmid […] (Hamilton, C. M., et al., 1989. J. Bacteriol. 171:4617-4622); (ii) a 0.8 kb fragment containing the 5′ region of the yiaJ gene and its promoter sequences; (iii) the spectinomycin resistance marker retrieved from Staphylococcus aureus Tn554 (Murphy, E. 1985. Mol. Gen. Genet. 200:33-39) to follow integration events; (iv) the lacI^q-lacO-trc promoter fragment retrieved from pSE380 (InVitrogen, Carlsbad, Calif.); and (v) a 1 kb fragment containing the 5′ end of yiaK, including its ribosome binding site for translation initiation while excluding the promoter sequences of the yiaK-S operon (FIG. 10). […]
Structure (SMILES),Growth of two retained clones ([1]; 2-KLG without IPTG),Growth of two retained clones ([1]; 2-KLG/IPTG),Utilization as sole source of carbon and energy / growth (Klebsielia oxytoca),"Growth on M9 minimal medium (K. oxytoca strain MGK003; MGK003, AsA 0.25% and IPTG 10 to 100 μM)","Growth on M9 minimal medium (K. oxytoca strain MGK003; MGK003, AsA 0.25%, lacking IPTG)"
"O=C(O)C(=O)[C@@H](O)[C@H](O)[C@@H](O)CO [2-KLG, 2-keto-L-gulonate]",not on 2-KLG without IPTG,grew,could not grow on 2-KLG,–,–
"O=C1O[C@H]([C@@H](O)CO)C(O)=C1O [AsA, ascorbic acid]",–,–,could utilize AsA as its sole source of carbon and energy,able to grow,no growth
